The text below walks through data of patent US20230035057A1, “METHOD OF TREATMENT OF SLEEP APNEA” (PRIMAVERA BIOSCIENCES, INC., priority 2021, published 2023).

Structures are written as SMILES.

In the test the test system is sleep apnea patient. As to the kind of experiment: Oxygen saturation (SpO2) monitoring during sleep with Wellure's O2Ring in a sleep apnea patient. The format is in vivo.
Text: FIG. 1 is a diagram showing sleep apnea patient's oxygen saturation levels (SpO2). Oxygen saturation levels (SpO2) in the blood during sleep were monitored using Wellure's O2Ring.
(§1) Oxygen saturation levels (SpO2) in the blood during sleep were monitored using Wellure's O2Ring.
as §1

With `CN[C@@H](C)[C@H](O)c1ccccc1` [ephedrine], where the note is “FIG. 2, 25 mg ephedrine one hour before bed plus Avinol PM, in the first three hours, came back afterwards”, the “breathing problems observed in FIG. 1” value is recorded as “greatly reduced”. Further, the “sleep apnea patient's oxygen saturation levels (SpO2)” value (FIG. 2, 25 mg of ephedrine one hour before going to bed along with sleeping pill Avinol PM just before going to bed) is recorded as “improved” and the “sleep apnea patient's oxygen saturation levels (SpO2)” value (FIG. 3, 25 mg ephedrine one hour before bed plus one tablet Avinol PM just before bed, another 25 mg ephedrine three hours after going to bed) was “improved”. Besides, the “breathing problems caused by sleep apnea” value (general statement, dose not given) was “reduces”.
